# Calls of active or inactive are those of the source.
# Assays:
# [1] = target: T1, Caspase-3 (Homo sapiens, UniProt P42574); format: functional;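 also: Dose-response selectivity test against caspase-3 for candidate inhibitors of sentrin-specific proteases (SENPs)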
# T1 sequence (P42574 whole entry): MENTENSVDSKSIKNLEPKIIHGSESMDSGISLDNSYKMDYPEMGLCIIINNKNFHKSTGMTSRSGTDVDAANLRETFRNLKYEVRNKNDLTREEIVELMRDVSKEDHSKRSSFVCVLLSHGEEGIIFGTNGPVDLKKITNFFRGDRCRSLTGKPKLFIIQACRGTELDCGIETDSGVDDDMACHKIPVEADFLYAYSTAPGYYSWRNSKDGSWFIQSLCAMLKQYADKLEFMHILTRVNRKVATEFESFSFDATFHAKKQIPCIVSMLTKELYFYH
# [2] = target: T2, Sentrin-specific protease 8 (Homo sapiens, UniProt Q96LD8); format: functional;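 also: luminescence read-out of SENP8 inhibition, dose-response confirmation following an ultra-high-throughput screen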
# T2 sequence (Q96LD8 whole entry): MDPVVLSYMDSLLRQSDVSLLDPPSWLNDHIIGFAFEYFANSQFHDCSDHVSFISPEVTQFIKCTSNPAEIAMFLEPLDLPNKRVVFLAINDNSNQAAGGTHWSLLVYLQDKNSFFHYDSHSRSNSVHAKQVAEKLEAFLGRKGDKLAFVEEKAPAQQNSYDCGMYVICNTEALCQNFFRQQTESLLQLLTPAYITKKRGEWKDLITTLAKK
# [3] = target: T3, Sentrin-specific protease 6 (Homo sapiens, UniProt Q9GZR1); format: functional;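 also: Luminescence-based dose-response confirmatory assay of SENP6 inhibition, following up an ultra-high-throughput screen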
# T3 sequence (Q9GZR1 whole entry): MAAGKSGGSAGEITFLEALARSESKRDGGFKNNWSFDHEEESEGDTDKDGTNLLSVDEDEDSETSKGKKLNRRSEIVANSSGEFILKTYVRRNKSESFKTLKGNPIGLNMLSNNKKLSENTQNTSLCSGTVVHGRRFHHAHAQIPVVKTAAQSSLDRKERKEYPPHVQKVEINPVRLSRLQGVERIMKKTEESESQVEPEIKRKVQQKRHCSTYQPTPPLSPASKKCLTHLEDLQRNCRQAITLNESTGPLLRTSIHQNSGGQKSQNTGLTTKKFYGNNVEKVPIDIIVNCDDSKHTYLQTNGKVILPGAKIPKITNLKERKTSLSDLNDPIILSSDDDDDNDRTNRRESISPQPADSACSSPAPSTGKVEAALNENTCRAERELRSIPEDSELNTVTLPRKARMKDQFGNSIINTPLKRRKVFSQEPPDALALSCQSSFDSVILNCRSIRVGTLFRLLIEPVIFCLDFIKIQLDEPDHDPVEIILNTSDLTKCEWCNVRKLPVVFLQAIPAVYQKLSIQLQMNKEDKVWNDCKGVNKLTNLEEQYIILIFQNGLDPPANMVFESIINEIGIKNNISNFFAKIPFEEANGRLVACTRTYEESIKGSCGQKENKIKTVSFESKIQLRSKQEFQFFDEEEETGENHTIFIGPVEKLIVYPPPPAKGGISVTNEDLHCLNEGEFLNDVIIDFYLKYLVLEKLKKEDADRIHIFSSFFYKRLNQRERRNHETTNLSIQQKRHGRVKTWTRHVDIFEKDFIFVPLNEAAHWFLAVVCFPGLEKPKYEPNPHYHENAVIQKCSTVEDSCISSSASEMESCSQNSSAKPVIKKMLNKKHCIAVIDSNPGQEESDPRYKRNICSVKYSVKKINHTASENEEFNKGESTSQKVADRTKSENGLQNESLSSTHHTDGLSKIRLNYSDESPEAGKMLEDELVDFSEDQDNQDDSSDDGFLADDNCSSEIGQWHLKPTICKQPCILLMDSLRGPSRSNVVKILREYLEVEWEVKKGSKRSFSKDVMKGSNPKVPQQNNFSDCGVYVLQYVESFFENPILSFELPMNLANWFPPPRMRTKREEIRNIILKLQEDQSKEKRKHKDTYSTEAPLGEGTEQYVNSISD
# [4] = target: T4, Sentrin-specific protease 7 (Homo sapiens, UniProt Q9BQF6); format: functional;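 also: Luminescence-based dose-response confirmation of ultra-high-throughput screening hits, measuring inhibition of SENP7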
# T4 sequence (Q9BQF6 whole entry): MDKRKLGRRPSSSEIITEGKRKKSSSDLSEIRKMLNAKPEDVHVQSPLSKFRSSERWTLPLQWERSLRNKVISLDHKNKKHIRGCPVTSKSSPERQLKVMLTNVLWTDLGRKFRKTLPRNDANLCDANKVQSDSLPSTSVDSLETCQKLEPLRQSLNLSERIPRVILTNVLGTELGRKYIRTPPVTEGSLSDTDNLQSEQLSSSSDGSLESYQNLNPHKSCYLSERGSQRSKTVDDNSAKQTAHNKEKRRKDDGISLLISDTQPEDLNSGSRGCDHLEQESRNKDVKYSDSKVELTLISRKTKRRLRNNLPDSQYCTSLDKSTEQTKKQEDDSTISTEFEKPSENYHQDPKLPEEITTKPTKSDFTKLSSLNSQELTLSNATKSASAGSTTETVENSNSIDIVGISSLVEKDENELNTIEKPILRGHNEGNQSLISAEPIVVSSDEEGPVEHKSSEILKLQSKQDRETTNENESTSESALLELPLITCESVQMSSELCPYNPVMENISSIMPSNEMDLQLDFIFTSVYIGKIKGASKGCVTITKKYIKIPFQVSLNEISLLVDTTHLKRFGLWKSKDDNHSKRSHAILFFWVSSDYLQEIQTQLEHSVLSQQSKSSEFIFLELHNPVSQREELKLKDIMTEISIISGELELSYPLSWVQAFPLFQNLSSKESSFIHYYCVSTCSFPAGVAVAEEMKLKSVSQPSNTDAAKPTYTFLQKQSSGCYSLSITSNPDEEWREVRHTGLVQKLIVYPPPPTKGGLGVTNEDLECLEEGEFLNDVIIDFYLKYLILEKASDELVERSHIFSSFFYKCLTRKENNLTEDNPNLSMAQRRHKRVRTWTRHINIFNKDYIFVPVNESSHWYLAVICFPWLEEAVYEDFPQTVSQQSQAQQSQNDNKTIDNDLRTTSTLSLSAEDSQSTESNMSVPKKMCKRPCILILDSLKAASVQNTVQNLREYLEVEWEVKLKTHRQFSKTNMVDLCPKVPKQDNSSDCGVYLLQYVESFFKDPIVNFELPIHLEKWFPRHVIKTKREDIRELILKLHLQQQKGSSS
# [5] = target: T5, Protein skinhead-1 (Caenorhabditis elegans, UniProt P34707); format: functional
# T5 sequence (P34707 whole entry): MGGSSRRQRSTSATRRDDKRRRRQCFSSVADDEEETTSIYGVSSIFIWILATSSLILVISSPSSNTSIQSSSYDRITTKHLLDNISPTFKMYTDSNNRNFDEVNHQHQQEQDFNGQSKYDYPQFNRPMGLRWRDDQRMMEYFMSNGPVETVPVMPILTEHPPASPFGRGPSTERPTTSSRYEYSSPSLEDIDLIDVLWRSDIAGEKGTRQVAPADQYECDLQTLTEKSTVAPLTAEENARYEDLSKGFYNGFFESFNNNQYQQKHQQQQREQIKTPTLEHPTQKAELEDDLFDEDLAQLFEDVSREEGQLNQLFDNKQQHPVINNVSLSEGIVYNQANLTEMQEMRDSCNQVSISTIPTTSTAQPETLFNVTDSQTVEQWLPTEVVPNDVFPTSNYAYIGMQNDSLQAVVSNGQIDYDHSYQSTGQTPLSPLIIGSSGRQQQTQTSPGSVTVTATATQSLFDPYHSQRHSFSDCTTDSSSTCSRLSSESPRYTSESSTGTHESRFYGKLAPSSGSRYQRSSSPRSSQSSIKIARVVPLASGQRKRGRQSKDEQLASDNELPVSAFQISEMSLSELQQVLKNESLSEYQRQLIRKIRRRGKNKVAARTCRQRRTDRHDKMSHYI
# [6] = cells; format: functional
# [7] = target: T6, Ubiquitin-conjugating enzyme E2 N (Homo sapiens, UniProt P61088); format: functional;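 also: Dose-response confirmation in a TR-FRET assay detecting UBC13-driven polyubiquitin chain formation, inhibition measured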
# T6 sequence (P61088 whole entry): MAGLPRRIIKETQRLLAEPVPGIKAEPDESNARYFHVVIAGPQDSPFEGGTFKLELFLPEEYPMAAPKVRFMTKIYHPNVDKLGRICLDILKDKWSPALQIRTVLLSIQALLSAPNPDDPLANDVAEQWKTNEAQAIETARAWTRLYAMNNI
# [8] = tested on: Streptococcus; test: GAS UMAA2166 growth inhibition – luminescence, BacTiterGlo, counter-screen for streptokinase expression inhibitor project, dose response (AID 1915); format: functional, organism-based;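 also: potency for reduction of bacterial viability or growth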
# [9] = tested on: Streptococcus sp. 'group A'; test: Streptococcus pyogenes SK(-)GAS viability under kanamycin – luminescence, BacTiterGlo, confirmation, counter-screen for streptokinase expression inhibitor project, dose response (AID 1900); format: functional, organism-based
# [10] = target: T7, Streptokinase A (Streptococcus pyogenes serotype M1, UniProt P10520); test: viability-normalized secreted streptokinase activity reduction – plasminogen activation absorbance, OD405, dose response (AID 1914); format: functional, Streptococcus pyogenes M1 GAS;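 also: secreted streptokinase activity via plasminogen activation per viability signal from cell pellet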
# T7 sequence (P10520 whole entry): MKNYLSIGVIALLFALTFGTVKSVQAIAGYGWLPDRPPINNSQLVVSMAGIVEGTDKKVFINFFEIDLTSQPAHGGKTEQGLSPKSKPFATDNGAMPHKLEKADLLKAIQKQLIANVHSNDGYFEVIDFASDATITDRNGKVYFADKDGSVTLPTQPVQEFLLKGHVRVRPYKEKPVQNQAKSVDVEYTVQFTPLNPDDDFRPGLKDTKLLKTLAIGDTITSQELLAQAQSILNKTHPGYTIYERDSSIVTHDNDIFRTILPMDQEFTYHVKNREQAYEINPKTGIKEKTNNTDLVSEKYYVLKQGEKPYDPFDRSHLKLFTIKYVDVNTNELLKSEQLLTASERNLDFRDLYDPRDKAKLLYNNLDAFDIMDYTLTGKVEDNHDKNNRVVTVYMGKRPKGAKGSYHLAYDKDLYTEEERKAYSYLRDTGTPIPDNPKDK
# [11] = fluconazole-exposed Candida albicans growth modulators – fluorescence, retest, confirmation (AID 2467); format: functional, cell-based
# [12] = NIH-3T3 fibroblast cytotoxicity, dose response, cytotoxicity control, cell-based, fluorescence, Alamar Blue, secondary assay (AID 2327); format: functional;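 also: NIH-3T3 mouse fibroblasts cultured with fluconazole at 8 µg/mL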
# [13] = target: Cytochrome P450 2D6 (Homo sapiens, UniProt P10635);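 also: CYP2D6 member of a cytochrome P450 panel assay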
# Chain of Cytochrome P450 2D6 (P10635 whole entry): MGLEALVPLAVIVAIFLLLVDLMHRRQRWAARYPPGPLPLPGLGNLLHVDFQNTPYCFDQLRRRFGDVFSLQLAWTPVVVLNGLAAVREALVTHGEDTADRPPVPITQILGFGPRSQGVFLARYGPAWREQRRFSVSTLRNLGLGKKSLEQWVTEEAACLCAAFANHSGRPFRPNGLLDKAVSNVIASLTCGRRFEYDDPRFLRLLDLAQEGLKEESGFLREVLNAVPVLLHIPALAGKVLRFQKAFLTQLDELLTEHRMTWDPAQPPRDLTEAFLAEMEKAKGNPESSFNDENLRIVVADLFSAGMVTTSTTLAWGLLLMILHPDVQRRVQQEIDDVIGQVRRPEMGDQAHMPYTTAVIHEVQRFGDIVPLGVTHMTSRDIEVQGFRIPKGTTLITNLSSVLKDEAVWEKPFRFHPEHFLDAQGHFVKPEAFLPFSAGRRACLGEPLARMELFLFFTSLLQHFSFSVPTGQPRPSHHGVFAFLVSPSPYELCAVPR
# [14] = Trypanosoma cruzi growth suppression in host cells – NIH3T3 host cells, beta-gal luminescence, confirmation (AID 2044); format: functional, cell-based;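 also: intracellular parasites grown in NIH/3T3 mouse fibroblasts as host cells; luminescent beta-galactosidase reporter signal from transgenic T. cruzi replicating inside host cells; inhibitors lower the luminescence signal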
# [15] = NIH3T3 cell viability loss – ATP luminescence, mouse fibroblasts, counter-screen, dose response (AID 2010); format: functional, cell-based;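 also: cells exposed to compound for about 90 hours before reading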
compound,measurement,setting,value
O=C(Nc1ccccc1)Nc1ccccc1C(=O)NCc1ccccc1,IC50,[1],39.4 µM (active)
same,IC50,[2],> 100 µM (inactive)
same,IC50,[3],> 100 µM (inactive)
same,IC50,[4],6.13 µM (active)
Cc1ccc(CN2CCC(n3nccc3NC(=O)c3ccccc3C)CC2)o1,IC50,[5],> 100 µM (inactive)
COc1ccc(C(=O)COC(=O)c2ccccc2O)c(OC)c1,IC50,[1],27.6 µM (active)
same,IC50,[6],36.9 µM (active)
same,IC50,[2],53.1 µM (active)
same,IC50,[3],13.8 µM (active)
same,IC50,[4],8.26 µM (active)
Brc1c(-c2ccccc2)nc2n1Cc1ccccc1-2,IC50,[1],15 µM (active)
same,IC50,[2],7.57 µM (active)
same,IC50,[3],6.75 µM (active)
same,IC50,[4],5.23 µM (active)
Cc1nc(N)sc1C(=O)OCC(C)C,IC50,[7],> 20 µM (inactive)
O=C1/C(=C/c2cccs2)CCC/C1=C\c1cccs1,EC50,[8],> 150 µM (not active)
same,EC50,[9],> 150 µM (not active)
same,EC50,[10],68.5 µM (active)
same,IC50,[5],95.2 µM (inactive)
Cc1ccc(NC(=O)c2cc(-c3ccco3)on2)cc1C,IC50,[5],> 100 µM (inactive)
O=C(OCc1ccccc1Cl)c1cccnc1Cl,IC50,[1],23.5 µM (active)
same,IC50,[2],27.3 µM (active)
same,IC50,[3],36.6 µM (active)
same,IC50,[4],11.8 µM (active)
C=CCn1c(SCc2ccc(C(=O)Nc3ccccc3)cc2)nnc1-c1ccccc1,EC50,[11],> 38 µM (not active)
same,EC50,[12],> 160 µM (inactive)
same,AC50,[13],22.4 µM (inconclusive)
Cc1ccc(C(C(=O)NCC2CCCO2)N(C(=O)c2snc(C(N)=O)c2N)c2ccc(C(C)C)cc2)o1 (stereo unspecified),IC50,[7],> 20 µM (inactive)
CCOC(=O)/C(C#N)=C/c1ccc(N2CCCCC2)cc1,IC50,[1],23.4 µM (active)
same,IC50,[2],31.6 µM (active)
same,IC50,[3],41.4 µM (active)
same,IC50,[4],7.1 µM (active)
COc1ccc(-n2nc(C(=O)NCc3cc(OC)ccc3OC)c3c4ccccc4n(C)c3c2=O)cc1,IC50,[7],> 20 µM (inactive)
N#Cc1cnn(-c2nc(O)c3c4c(sc3n2)CCCC4)c1N,EC50,[11],0.131 µM (active)
same,EC50,[12],16.9 µM (active)
COC(=O)C1CCN(C(=O)CN(C)Cc2ccc(C(C)(C)C)cc2)CC1,EC50,[11],1.43 µM (inconclusive)
same,EC50,[14],0.513 µM (active)
same,EC50,[12],> 150 µM (inactive)
same,EC50,[15],> 60 µM (not active)
COc1cccc(NC(=O)CN(C)C(=O)c2cccnc2Nc2cccc(C(F)(F)F)c2)c1,IC50,[7],> 20 µM (inactive)
c1ccc2c(C[C@@H]3CNCCN3CCCCC3CCCCC3)cccc2c1,IC50,[7],> 20 µM (inactive)
Clc1ccccc1/C=C/c1ccnc2ccccc12,IC50,[5],67.2 µM (inactive)
CCOC(=O)Nc1cccc2c1-c1ccc([N+](=O)[O-])cc1C2=O,IC50,[5],> 100 µM (inactive)
Cc1nc2c(C(=O)NCCC(C)C)cnn2c(O)c1Cc1ccccc1F,EC50,[11],4.22 µM (active)
same,EC50,[12],> 150 µM (inactive)
CC/C(C)=N/Nc1cccc([N+](=O)[O-])c1,EC50,[11],> 38 µM (not active)
same,EC50,[12],19.8 µM (active)
Clc1cccc(-c2ccc(-c3nc4ccccn4c3NCc3ccccc3)cc2)c1,IC50,[1],12.9 µM (active)
same,IC50,[2],18 µM (active)
same,IC50,[3],9.6 µM (active)
same,IC50,[4],7.22 µM (active)

# Source: ChEMBL document CHEMBL1201862, “PubChem BioAssay data set” (2004)
